6 molecules from ChEMBL document CHEMBL1201862, “PubChem BioAssay data set” (2004) can be followed below.

SMILES strings stand for the structures. The source made the active and inactive calls.

One assay deals with Escherichia coli. As to the kind of experiment: microbe, parasite or virus in culture.
The next assay has as its system A-375. As to the kind of experiment: proliferation inhibition in MITF-low A375 cells – cell-based, cherry-pick samples, set 2, counter-screen for MITF modulator project, dose response (AID 540335). It counts as functional. As to conditions: Homo sapiens. (In general: Counterscreens check selectivity or assay interference.)
The target of a further assay is T1, Bcl-2-related protein A1 (Mus musculus, UniProt Q07440).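 Also: confirmatory dose–response counterscreen on Bfl-1, used to check hits from a UBC13 polyubiquitin inhibitor campaign.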
T1 sequence (Q07440 whole entry): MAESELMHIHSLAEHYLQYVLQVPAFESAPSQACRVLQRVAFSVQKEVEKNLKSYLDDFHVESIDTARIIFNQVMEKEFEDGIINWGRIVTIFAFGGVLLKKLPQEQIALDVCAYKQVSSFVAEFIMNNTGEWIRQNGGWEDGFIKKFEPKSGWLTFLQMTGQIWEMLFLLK
It counts as functional.

A further assay relates to INS1. Briefly: INS-1E survival protection against cytokine death – cell-based, luminescence, retest, dose response (AID 449756).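 Also: cell death triggered by IL-1 beta plus TNF-alpha plus IFN-gamma mixture; protective hits raise ATP signal compared with cytokine alone wells.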 The class given is functional. To be noted: Rattus norvegicus.
A short description of assay [1]: HEK-293T cell viability reduction – luminescence, B-cell screen hits, cytotoxicity control for BCR NF-kB inhibitor project, dose response (AID 489021).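 Also: HEK-293T cells carrying an NF-kB luciferase reporter; cells exposed to compound for about 14 hours before viability readout.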 It counts as functional, cell-based.
Assay [2] in a line: NIH3T3 cell viability loss – ATP luminescence, mouse fibroblasts, counter-screen, dose response (AID 2010).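 Also: cells exposed to compound for about 90 hours before reading.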 The class given is functional, cell-based.
The target of assay [3] is T2, Microphthalmia-associated transcription factor (Homo sapiens, UniProt O75030).
T2 sequence (O75030 whole entry): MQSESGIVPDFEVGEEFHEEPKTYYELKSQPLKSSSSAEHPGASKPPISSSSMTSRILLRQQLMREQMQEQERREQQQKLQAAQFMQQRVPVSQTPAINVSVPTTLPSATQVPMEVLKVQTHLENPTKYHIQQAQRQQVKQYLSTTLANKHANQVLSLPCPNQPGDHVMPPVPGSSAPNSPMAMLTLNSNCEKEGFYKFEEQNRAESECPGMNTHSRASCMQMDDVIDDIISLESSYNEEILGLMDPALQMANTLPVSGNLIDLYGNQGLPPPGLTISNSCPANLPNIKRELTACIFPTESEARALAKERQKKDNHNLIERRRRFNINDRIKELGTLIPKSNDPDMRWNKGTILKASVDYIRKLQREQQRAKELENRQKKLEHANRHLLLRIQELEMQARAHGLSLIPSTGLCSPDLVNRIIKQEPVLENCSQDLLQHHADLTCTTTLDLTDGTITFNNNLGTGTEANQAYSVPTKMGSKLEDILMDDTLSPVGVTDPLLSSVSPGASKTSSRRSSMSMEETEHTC
Briefly: reducers of TRPM1 reporter luminescence, concentration series – cell-based, SK-MEL-5, cherry-picked, set 3, MITF inhibitor project, dose response (AID 493073).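 Also: SK-MEL-5 melanoma cells with luciferase driven by the MITF target TRPM1 promoter.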 It counts as functional.

Assay [4] addresses T3, Ubiquitin-conjugating enzyme E2 N (Homo sapiens, UniProt P61088).
T3 sequence (P61088 whole entry): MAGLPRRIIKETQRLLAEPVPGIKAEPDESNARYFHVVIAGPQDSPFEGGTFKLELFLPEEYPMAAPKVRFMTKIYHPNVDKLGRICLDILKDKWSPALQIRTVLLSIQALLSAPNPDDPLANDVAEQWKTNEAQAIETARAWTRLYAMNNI
It counts as functional.

A short description of assay [5]: Trypanosoma cruzi growth suppression in host cells – NIH3T3 host cells, beta-gal luminescence, confirmation (AID 2044).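 Also: intracellular parasites grown in NIH/3T3 mouse fibroblasts as host cells; luminescent beta-galactosidase reporter signal from transgenic T. cruzi replicating inside host cells; inhibitors lower the luminescence signal.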 The class given is functional, cell-based.
The target in assay [6] is T3, Ubiquitin-conjugating enzyme E2 N. It counts as functional. This is another data set of the same source.
Assay [7] has as its system HEK293. Briefly: NOD2 signaling inhibitors in MDP-stimulated cells, cell-based, uHTS, luminescence (AID 2001). As to conditions: Homo sapiens. The class given is functional.
Assay [8] relates to HEK293. Briefly: cells. It counts as functional, cell-based. To be noted: Homo sapiens.
The test system of assay [9] is HEK293. As to the kind of experiment: cells. It counts as functional, cell-based. As to conditions: Homo sapiens. This is another data set of the same source.
Assay [10] is described as follows: blockers of CRF-binding protein–CRF-R2 complex – cell-based, uHTS hits, 384-well, dose response (AID 651639). The class given is functional, Homo sapiens. As to conditions: read-out: IC50_Mean.
For assay [11], the system named is HEK293. As to the kind of experiment: cells. As to conditions: Homo sapiens.
For assay [12], the system named is Streptococcus sp. 'group A'. As to the kind of experiment: Streptococcus pyogenes SK(-)GAS viability under kanamycin – luminescence, BacTiterGlo, confirmation, counter-screen for streptokinase expression inhibitor project, dose response (AID 1900). The class given is functional, organism-based.
For assay [13], the system named is HEK293. Briefly: inhibition of NOD1-driven NF-kB reporter – cell-based, luminescence, uHTS, primary screen (AID 1578). As to conditions: Homo sapiens. The class given is functional.
The subject of a further assay is Streptococcus. Briefly: GAS UMAA2166 growth inhibition – luminescence, BacTiterGlo, counter-screen for streptokinase expression inhibitor project, dose response (AID 1915).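 Also: potency for reduction of bacterial viability or growth.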 The class given is functional, organism-based.
The next assay has as its system HeLa. As to the kind of experiment: ATP-based viability loss in HeLa cells – cell-based, CellTiter-Glo luminescence, cherry-pick samples, cytotoxicity control for MITF activator project, dose response (AID 540259). As to conditions: Homo sapiens. It counts as functional. (In general: In ATP-based viability assays light output follows the ATP content of the culture.)

In the next assay the target is Tumor necrosis factor (Homo sapiens, UniProt P01375). As to the kind of experiment: analog potency on TNFa NF-kB signaling – cell-based, revised, SAR follow-up (AID 2337). It counts as functional.
Sequence of Tumor necrosis factor (P01375 whole entry, the tested form may be a part): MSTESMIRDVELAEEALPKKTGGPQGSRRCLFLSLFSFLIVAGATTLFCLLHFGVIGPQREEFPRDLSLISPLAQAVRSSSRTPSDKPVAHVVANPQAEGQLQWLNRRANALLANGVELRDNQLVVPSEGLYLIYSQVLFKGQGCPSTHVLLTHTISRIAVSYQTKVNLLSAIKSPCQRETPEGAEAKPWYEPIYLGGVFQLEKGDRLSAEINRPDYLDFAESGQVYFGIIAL
Assay [14] concerns the target T4, Nucleotide-binding oligomerization domain-containing protein 1 (Homo sapiens, UniProt Q9Y239).
T4 sequence (Q9Y239 whole entry): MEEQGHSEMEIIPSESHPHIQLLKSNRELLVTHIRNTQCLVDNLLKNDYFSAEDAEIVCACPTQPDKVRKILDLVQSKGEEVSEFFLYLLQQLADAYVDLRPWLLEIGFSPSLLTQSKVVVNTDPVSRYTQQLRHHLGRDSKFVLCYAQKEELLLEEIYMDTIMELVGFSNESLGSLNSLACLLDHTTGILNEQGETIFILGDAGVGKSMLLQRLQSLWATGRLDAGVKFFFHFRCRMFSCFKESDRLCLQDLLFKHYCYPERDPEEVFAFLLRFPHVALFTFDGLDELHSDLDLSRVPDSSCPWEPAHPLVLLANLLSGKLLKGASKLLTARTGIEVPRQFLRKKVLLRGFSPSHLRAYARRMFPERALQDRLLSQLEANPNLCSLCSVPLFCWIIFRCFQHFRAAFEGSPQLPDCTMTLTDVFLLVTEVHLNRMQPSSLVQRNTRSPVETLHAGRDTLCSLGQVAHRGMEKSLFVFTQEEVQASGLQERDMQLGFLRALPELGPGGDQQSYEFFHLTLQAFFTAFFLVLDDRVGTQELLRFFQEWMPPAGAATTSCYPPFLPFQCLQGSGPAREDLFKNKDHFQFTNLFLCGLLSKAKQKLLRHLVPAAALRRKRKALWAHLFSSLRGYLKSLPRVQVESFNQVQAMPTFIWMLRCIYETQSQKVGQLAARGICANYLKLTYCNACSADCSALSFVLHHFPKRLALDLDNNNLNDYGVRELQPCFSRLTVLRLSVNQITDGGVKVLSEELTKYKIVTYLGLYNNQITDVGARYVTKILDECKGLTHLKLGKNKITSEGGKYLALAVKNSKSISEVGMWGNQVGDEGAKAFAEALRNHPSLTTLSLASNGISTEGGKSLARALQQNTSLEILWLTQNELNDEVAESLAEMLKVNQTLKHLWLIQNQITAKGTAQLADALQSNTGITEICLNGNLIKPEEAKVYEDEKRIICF
Briefly: blockers of NOD1 pathway activity – revised, SAR follow-up (AID 2333). It counts as functional.

For the molecule `CCOC(=O)C1(c2nc(N)cs2)COC(=O)C1` (stereo not drawn), the half-maximal activity concentration (AC50) (in general, the concentration at which the activity in the assay is half-maximal) with Escherichia coli is 24.9 µM (active).
Take `CCC(C)(C)c1ccc(OCCCC[n+]2ccccc2)c(C(C)(C)CC)c1`: the AC50 in the assay with A-375 is 22.9 µM (active); in the assay with INS1, 2 µM (active); in assay [3], 4.35 µM (active). The IC50 at Bcl-2-related protein A1 was > 20 µM (inactive); in assay [1] it was 59.7 µM (inactive); in assay [4], 17.3 µM (active); in [6], 16.9 µM (active). Besides, the results for the EC50 in [2] and in [5] were 19.7 µM (active) and 0.357 µM (active), respectively.
Consider `CCOc1ccc(NC(=O)CNC(=O)Cc2ccccc2)cc1`, for which the concentration at half-maximal activity (AC50) with Escherichia coli was 25 µM (active).
In the case of `Cc1ccc(SCc2cc(O)nc(SCC(=O)Nc3cc(Cl)ccc3Cl)n2)cc1`, the IC50 with HEK293 [7] was 9.47 µM (inactive); in the assay with HEK293 [8], > 20 µM (inactive); with HEK293 [9], > 20 µM (inactive); in [10], > 20 µM (inactive); in the assay with HEK293 [11], > 20 µM (inactive). The EC50 (usually the concentration giving half of the maximal effect) was 9.13 µM (active) in [12], 6.75 µM (active) with HEK293 [13] and 38.5 µM (active) in the assay on Streptococcus.
Turning to `COC(=O)Cn1c(C)nc2c(sc3nc(C)cc(C)c32)c1=O`, in the assay with HeLa, the AC50 was > 350 µM (inactive).
For `COc1ccc2oc(C[S+]([O-])c3ccccc3)c(C(=O)O)c2c1` (stereo not drawn), the IC50 (in the assay with HEK293 [11]; at Tumor necrosis factor; in [14]) was > 20 µM (inactive) each time.
